Structures are written as SMILES.

The target in this experiment is Metabotropic glutamate receptor 2 (Rattus norvegicus) (UniProt P31421). Nature of the experiment: Compound was evaluated for the inhibitory activity against cloned Metabotropic glutamate receptor 2.
Metabotropic glutamate receptor 2 (Rattus norvegicus), sequence (P31421 whole entry, looked up): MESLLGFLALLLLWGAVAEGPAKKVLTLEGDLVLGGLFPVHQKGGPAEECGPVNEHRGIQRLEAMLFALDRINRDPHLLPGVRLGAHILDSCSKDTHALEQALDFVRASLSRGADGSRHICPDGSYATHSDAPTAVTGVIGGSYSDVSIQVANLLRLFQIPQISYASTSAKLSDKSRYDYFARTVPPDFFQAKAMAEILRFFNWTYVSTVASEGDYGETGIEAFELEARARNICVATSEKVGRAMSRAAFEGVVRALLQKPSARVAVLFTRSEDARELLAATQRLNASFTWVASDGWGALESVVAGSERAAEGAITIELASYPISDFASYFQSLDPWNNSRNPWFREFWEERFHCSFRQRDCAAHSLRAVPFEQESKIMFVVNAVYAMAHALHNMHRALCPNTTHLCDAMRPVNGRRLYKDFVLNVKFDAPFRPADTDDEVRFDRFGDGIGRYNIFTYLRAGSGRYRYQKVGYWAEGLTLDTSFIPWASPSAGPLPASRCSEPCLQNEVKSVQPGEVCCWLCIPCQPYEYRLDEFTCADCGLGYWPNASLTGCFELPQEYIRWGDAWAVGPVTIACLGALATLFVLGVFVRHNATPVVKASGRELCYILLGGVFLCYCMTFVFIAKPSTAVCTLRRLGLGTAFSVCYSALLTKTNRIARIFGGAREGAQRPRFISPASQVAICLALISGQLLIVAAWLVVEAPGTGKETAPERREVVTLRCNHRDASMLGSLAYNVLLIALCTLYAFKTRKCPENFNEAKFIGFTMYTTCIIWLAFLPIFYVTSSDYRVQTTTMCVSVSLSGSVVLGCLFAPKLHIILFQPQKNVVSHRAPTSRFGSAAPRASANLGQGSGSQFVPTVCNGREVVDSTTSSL

As to `Cc1o[nH]c(=O)c1CC[C@H](N)C(=O)O` [2-Amino-4-(3-hydroxy-5-methyl-isoxazol-4-yl)-butyric acid(S-homo-AMPA)], the EC50 (usually the concentration needed to bring the measured effect to its halfway point) is more than 1000 µM.

`Cc1o[nH]c(=O)c1CC[C@@H](N)C(=O)O` [(R)-2-Amino-4-(3-hydroxy-5-methyl-isoxazol-4-yl)-butyric acid]: the EC50 was more than 1000 µM.
